In US20090068290A1, “BIFEPRUNOX DOSES FOR TREATING SCHIZOPHRENIA” (priority 2006, published 2009):

How the values were obtained:
[1] = Pooled metabolic analysis, 6-week studies: body weight; details: 6-week studies
Text: OBJECTIVE: To examine the metabolic effects of bifeprunox in patients with acute and stable schizophrenia.
METHODS: Metabolic data was compiled from one 6-month and four 6-week studies (i.e., a treatment period) of bifeprunox in patients with stable and acute schizophrenia, respectively. In the 6-month study, patients received bifeprunox (n=331) or placebo (PBO) (n=166). […] Metabolic evaluations included body weight, body mass index (BMI), plasma glucose and lipid profiles. Fasting glucose and lipid values were assessed in one 6-week study and in the 6-month study. Triglyceride:HDL ratio (TG:HDL) was calculated as a marker of insulin resistance. No statistical analyses were performed; only descriptive statistics are presented.

[2] = system: adult subjects with schizophrenia; experiment: Adverse events (TEAE, SAE, special interest, EPS-related TEAE), Clinical Study Two; assay type: in vivo, human; details: Risperidone 6 mg
Description: (§1) Subjects who completed this study had the option to continue in the long-term. […] Risperidone-treated subjects were titrated from 2 mg to 6 mg daily over a three-day period and were subsequently maintained at 6 mg/day for the remainder of the treatment period. […] Blood samples were also obtained at Screening/Baseline, Week 3, and Week 6 for clinical laboratory assessments.

[3] = system: adult subjects with schizophrenia; experiment: Calgary Depression Scale for Schizophrenia (CDSS), Clinical Study Two; assay type: in vivo, human; details: LOCF; for Change from Baseline in CDSS Total Score, Mean (SD) / Change from Baseline in CDSS Total Score, Median: 6 mg
Description: (§2) Rating scale assessments were performed weekly, except for week 5, to measure the change from baseline to endpoint of the PANSS total score. Other assessments included: PANSS positive symptom subscale score, PANSS negative symptom subscale score, PANSS general pschopathology subscale score, BPRS total score, BPRS psychosis score, the CGI-S score, the CGI-I score, responder rates based on the PANSS total score, and the Calgary Depression Scale for Schizophrenia (CDSS). […]
as §1

[4] = system: adult subjects with schizophrenia; experiment: PANSS negative subscale score, Clinical Study One; assay type: in vivo, human; details: Risperidone 6 mg, ITT
Description: There were five treatment groups in this study. […] Study medication was administered once daily. After Baseline measurements were performed, the titration phase was begun. Bifeprunox treated subjects were titrated up to 5 mg, 10 mg or 20 mg according to a standardized titration schedule (Day 1: 0.125 mg, Day 2: 0.25 mg, Day 3: 0.5 mg, Day 4: 1.0 mg, Day 5: 2.0 mg, Day 6: 5.0 mg, Day 7: 10.0 mg, Day 8: 20 mg). When the assigned dose was reached, subjects were maintained at that dose for the remainder of the six-week treatment period.
The change in the Positive and Negative Symptom Scale (PANSS) total score, from baseline to endpoint, was the primary outcome measure. Secondary efficacy measures included: PANSS positive, PANSS negative, PANSS general psychopathology (GPP) score, PANSS-derived Brief Psychiatric Rating Scale (BPRS) score, Clinical Global Impressions-Severity of Illness (CGI-S), CGI-Improvement (CGI-I) scores, and responder rates. Safety and tolerability evaluations included extrapyramidal symptoms (EPS), weight gain, lipid profile, and serum prolactin.

[5] = system: adult subjects with schizophrenia; experiment: PANSS positive symptom subscale score, Clinical Study Two; assay type: in vivo, human; details: Risperidone 6 mg, LOCF, ITT
Description: as §2, §1

[6] = Clinical laboratory assessments (prolactin), Clinical Study Three; details: olanzapine 15 mg; 6 weeks
Description: To assess the safety and tolerability of bifeprunox using physical examination, weight, waist circumference, vital signs (pulse rate and systolic/diastolic blood pressure [BP], and oral temperature), 12-lead electrocardiogram (ECG), clinical laboratory assessments (hematology, biochemistry including fasting insulin level, fasting glucose, fasting lipid profile, urinalysis, special laboratory assessments for prolactin, IGF-1, IGFBP-3, and thyroid function), need for anticholinergic treatment during double-blind treatment period, concomitant medication use, adverse event (AE) monitoring, and assessments of abnormal movement including the Simpson-Angus Scale (SAS), Barnes Akathisia Scale (BAS), and Abnormal Involuntary Movement Scale (AIMS).

Question: Which “mean weight increase at endpoint” value ([1]; pooled) does the source give for `Cc1nc2n(c(=O)c1CCN1CCC(c3noc4cc(F)ccc34)CC1)CCCC2` [Risperidone, risperidone, reference compound] here?
Answer: The value was 1.7 kg.

Question: What about the mean weight change ([1]; pooled (overall summary)) of the same molecule?
Answer: The mean weight change was “+1.7 kg”.

Question: And the “AKATHISIA, %” value [2]?
Answer: Its value is “(10%)”.

Question: And the “BRADYKINESIA, %” value [2]?
Answer: The value was “(1%)”.

Question: What about the “DISTURBANCE IN ATTENTION, %” value [2] of the same molecule?
Answer: The value was “(1%)”.

Question: And the “DIZZINESS, %” value [2]?
Answer: The value was “(6%)”.

Question: And the “DYSARTHRIA, %” value [2]?
Answer: Its value is “(2%)”.

Question: And the “DYSKINESIA, %” value [2]?
Answer: Its value is “(<1%)”.

Question: And the “Dystonia, %” value [2]?
Answer: Its value is “(7%)”.

Question: What about the “EXTRAPYRAMIDAL DISORDER, %” value [2] of the same molecule?
Answer: Its value is “(14%)”.

Question: And the “HEADACHE NOS, %” value [2]?
Answer: The value was “(15%)”.

Question: And the “Hypoaesthesia, %” value [2]?
Answer: Its value is 1 (<1%).

Question: What about the “Memory Impairment, %” value [2] of the same molecule?
Answer: Its value is 1 (<1%).

Question: And the “NERVOUS SYSTEM DISORDERS, %” value [2]?
Answer: The value was “(53%)”.

Question: What about the “Parkinsonism, %” value [2] of the same molecule?
Answer: Its value is 1%.

Question: What about the “SEDATION, %” value [2] of the same molecule?
Answer: The value was 7%.

Question: And the “SINUS HEADACHE, %” value [2]?
Answer: Its value is 1 (<1%).

Question: What about the “SOMNOLENCE, %” value [2] of the same molecule?
Answer: Its value is 6%.

Question: And the “TARDIVE DYSKINESIA, %” value [2]?
Answer: Its value is 2%.

Question: What about the “TREMOR, %” value [2] of the same molecule?
Answer: Its value is 5%.

Question: What about the “incidence of severe TEAE of schizophrenia” value [2] of the same molecule?
Answer: Its value is 2%.

Question: What about the “subjects with at least one TEAE” value [2] of the same molecule?
Answer: The value was 78%.

Question: And the “Change from Baseline in CDSS Total Score, Mean (SD)” value ([3]; Week 1)?
Answer: The value was −0.62 (2.42).

Question: What about the “Change from Baseline in CDSS Total Score, Median” value ([3]; Week 1) of the same molecule?
Answer: Its value is 0.0.

Question: And the “Change from Baseline in CDSS Total Score, Mean (SD)” value ([3]; Week 2)?
Answer: Its value is −0.74 (2.71).

Question: What about the “Change from Baseline in CDSS Total Score, Median” value ([3]; Week 2) of the same molecule?
Answer: The value was 0.0.

Question: What about the “Change from Baseline in CDSS Total Score, Mean (SD)” value ([3]; Week 3) of the same molecule?
Answer: Its value is −0.93 (3.41).

Question: And the “Change from Baseline in CDSS Total Score, Median” value ([3]; Week 3)?
Answer: The value was 0.0.

Question: And the “Change from Baseline in CDSS Total Score, Mean (SD)” value ([3]; Week 4)?
Answer: Its value is −0.95 (3.08).

Question: And the “Change from Baseline in CDSS Total Score, Median” value ([3]; Week 4)?
Answer: Its value is 0.0.

Question: What about the “Change from Baseline in CDSS Total Score, Mean (SD)” value ([3]; Week 6/Endpoint) of the same molecule?
Answer: The value was −0.89 (3.42).

Question: And the “Change from Baseline in CDSS Total Score, Median” value ([3]; Week 6/Endpoint)?
Answer: The value was 0.0.

Question: What about the “mean change (SD) from Baseline to Endpoint in CDSS score” value ([3]; risperidone 6 mg, ITT) of the same molecule?
Answer: The value was −0.89 (3.42).

Question: And the “Change from Baseline in PANSS Negative Subscale Score, Mean (S.D.)” value (“Change from Baseline … (S.D.)” for short) ([4]; Endpoint LOCF)?
Answer: The value was −3.6 (4.6).

Question: And the “Change from Baseline in PANSS Negative Subscale Score, Median” value ([4]; Endpoint LOCF)?
Answer: The value was −3.

Question: What about the “Change from Baseline … (S.D.)” value ([4]; Week 1, LOCF) of the same molecule?
Answer: Its value is −2.1 (3.5).

Question: And the “Change from Baseline in PANSS Negative Subscale Score, Median” value ([4]; Week 1, LOCF)?
Answer: The value was −1.

Question: And the “Change from Baseline … (S.D.)” value ([4]; Week 2, LOCF)?
Answer: Its value is −3.0 (4.2).

Question: What about the “Change from Baseline in PANSS Negative Subscale Score, Median” value ([4]; Week 2, LOCF) of the same molecule?
Answer: Its value is −3.

Question: And the “Change from Baseline … (S.D.)” value ([4]; Week 3, LOCF)?
Answer: Its value is −3.5 (4.2).

Question: And the “Change from Baseline in PANSS Negative Subscale Score, Median” value ([4]; Week 3, LOCF)?
Answer: Its value is −3.

Question: What about the “Change from Baseline … (S.D.)” value ([4]; Week 4, LOCF) of the same molecule?
Answer: The value was −3.2 (4.3).

Question: And the “Change from Baseline in PANSS Negative Subscale Score, Median” value ([4]; Week 4, LOCF)?
Answer: The value was −3.

Question: And the “Change from Baseline in PANSS Positive Symptom Subscale Score, Mean (SD)” value ([5]; Week 1)?
Answer: The value was −3.3 (3.6).

Question: What about the “Change from Baseline in PANSS Positive Symptom Subscale Score, Median” value ([5]; Week 1) of the same molecule?
Answer: Its value is −3.

Question: And the “Change from Baseline in PANSS Positive Symptom Subscale Score, Mean (SD)” value ([5]; Week 2)?
Answer: The value was −5.3 (4.7).

Question: And the “Change from Baseline in PANSS Positive Symptom Subscale Score, Median” value ([5]; Week 2)?
Answer: The value was −5.

Question: What about the “Change from Baseline in PANSS Positive Symptom Subscale Score, Mean (SD)” value ([5]; Week 3) of the same molecule?
Answer: Its value is −6.3 (5.3).

Question: And the “Change from Baseline in PANSS Positive Symptom Subscale Score, Median” value ([5]; Week 3)?
Answer: The value was −6.

Question: What about the “Change from Baseline in PANSS Positive Symptom Subscale Score, Mean (SD)” value ([5]; Week 4) of the same molecule?
Answer: Its value is −7.0 (5.6).

Question: And the “Change from Baseline in PANSS Positive Symptom Subscale Score, Median” value ([5]; Week 4)?
Answer: Its value is −7.

Question: What about the “Change from Baseline in PANSS Positive Symptom Subscale Score, Mean (SD)” value ([5]; Week 6/Endpoint) of the same molecule?
Answer: Its value is −7.2 (6.6).

Question: And the “Change from Baseline in PANSS Positive Symptom Subscale Score, Median” value ([5]; Week 6/Endpoint)?
Answer: Its value is −7.

Question: Which prolactin [6] does the source give for `Cc1cc2c(s1)Nc1ccccc1N=C2N1CCN(C)CC1` [Olanzapine, olanzapine, reference compound] here?
Answer: The prolactin was “increases in prolactin”.
